Results on twelve compounds are retold here after patent US20240251792A1, “WEED CONTROL METHOD” (SYNGENTA CROP PROTECTION AG, priority 2021, published 2024).

Holding throughout (type): in vivo
One assay concerns weeds and/or crops. As to the kind of experiment: Post-emergence biological efficacy (Table 4). As to conditions: 312 h, 1000 g/ha, evaluated after 13 days. The protocol: (§1) Seeds of weeds and/or crops were sown in standard soil in pots. After cultivation for 14 days under controlled conditions in a glasshouse (at 24/19° C., day/night; 16 hours light), the plants were sprayed with an aqueous spray solution derived from the formulation of the technical active ingredient in a small amount of acetone and a special solvent and emulsifier mixture referred to as F50 (11.12% Emulsogen EL360 TM+44.44% N-methylpyrrolidone+44.44% Dowanol DPM glycol ether), to create a 50 g/l solution which was then diluted using 0.2% Genapol X080 as diluent to give the desired final dose of test compound.
(§2) The test plants were then grown under controlled conditions in the glasshouse (at 24/18° C., day/night; 15 hours light; 50% humidity) and watered twice daily. After 13 days the test was evaluated (100=total damage to plant; 0=no damage to plant).

The test system of a further assay is AMARE. As to the kind of experiment: Pre-emergence biological efficacy (Table 3). As to conditions: Amaranthus retroflexus, 312 h, 1000 g/ha, after 13 days, read-out: evaluation (100=total damage to plant; 0=no damage to plant). The protocol: as §1, with “one day” for “14 days”, “AMA” for “F50”
as §2

A further assay has as its system STEME. As to the kind of experiment: Pre-emergence biological efficacy (Table 3). As to conditions: 312 h, after 13 days, read-out: evaluation (100=total damage to plant; 0=no damage to plant). The protocol:
as §1, with “one day” for “14 days”, “AMA” for “F50”
as §2

Another assay deals with IPOHE. As to the kind of experiment: Pre-emergence biological efficacy (Table 3). As to conditions: Ipomoea hederacea, 312 h, 1000 g/ha, after 13 days, read-out: evaluation (100=total damage to plant; 0=no damage to plant). On the procedure:
as §1, with “one day” for “14 days”, “AMA” for “F50”
as §2

In a further assay the test system is ABUTH. As to the kind of experiment: Pre-emergence biological efficacy (Table 3). As to conditions: Abutilon theophrasti, 312 h, after 13 days, read-out: evaluation (100=total damage to plant; 0=no damage to plant). On the procedure: as §1, with “one day” for “14 days”, “AMA” for “F50”
as §2

A further assay has as its system ZEAMX. As to the kind of experiment: Pre-emergence biological efficacy (Table 3). As to conditions: 312 h, 1000 g/ha, after 13 days, read-out: evaluation (100=total damage to plant; 0=no damage to plant). On the procedure: as §1, with “one day” for “14 days”, “AMA” for “F50”
as §2

The subject of the next assay is ECHCG. As to the kind of experiment: Pre-emergence biological efficacy (Table 3). As to conditions: Echinochloa crus-galli, 312 h, 1000 g/ha, after 13 days, read-out: evaluation (100=total damage to plant; 0=no damage to plant). On the procedure: as §1, with “one day” for “14 days”, “AMA” for “F50”
as §2

Where [1] appears, read: STEME, read-out: damage to plant STEME (100=total damage; 0=no damage).
Setting [2] is: ZEAMX, read-out: damage to plant ZEAMX (100=total damage; 0=no damage).
The mark [3] stands for this setting: Amaranthus retroflexus, AMARE, read-out: damage to plant AMARE (100=total damage; 0=no damage).
Where [4] appears, read: Echinochloa crus-galli, ECHCG, read-out: damage to plant ECHCG (100=total damage; 0=no damage).
[5] abbreviates: Ipomoea hederacea, IPOHE, read-out: damage to plant IPOHE (100=total damage; 0=no damage).
[6] abbreviates: Abutilon theophrasti, ABUTH, read-out: damage to plant ABUTH (100=total damage; 0=no damage).

Where two headings read alike, the source gives them in different places.

With `O=C(O)C(F)(F)c1cccc(O)c1` [Compound 1-5, 2,2-Difluoro-2-(3-hydroxyphenyl)acetic acid], the pest or weed control at 1000 g/ha was found to be 20% with weeds and/or crops (setting [1]); 10% with weeds and/or crops (setting [2]); 20% in the assay with weeds and/or crops (setting [3]); 10% in the assay on weeds and/or crops (setting [4]); 20% in the assay on weeds and/or crops (setting [5]); 10% in the assay on AMARE. The results for the pest or weed control at 1000 g/ha in the assay on STEME, in the assay on IPOHE and in the assay on ABUTH were 20%, 20% and 10%, respectively. For the same compound, the plant injury at 1000 g/ha with ZEAMX turned out to be 10%.
In the case of `O=C(O)C(F)(F)c1cc(O)ccc1Cl` [Compound 1-61, 2-(2-Chloro-5-hydroxyphenyl)-2,2-difluoroacetic acid], the pest or weed control at 1000 g/ha in the assay with weeds and/or crops (setting [1]) was 10%; in the assay on weeds and/or crops (setting [2]), 10%; in the assay with weeds and/or crops (setting [6]), 10%; in the assay with weeds and/or crops (setting [3]) it was 10%; with weeds and/or crops (setting [5]), 20%; in the assay with AMARE, 20%. Also, the pest or weed control at 1000 g/ha with STEME, in the assay on IPOHE and in the assay on ABUTH was 0% throughout. For the same compound, the plant injury at 1000 g/ha in the assay with ZEAMX is 0%.
As for `O=C(O)C(F)(F)c1cc(-c2ccc(F)cc2)ccc1Cl` [Compound 1-64, 2-(4-Chloro-4′-fluoro-[1,1′-biphenyl]-3-yl)-2,2-difluoroacetic acid], the pest or weed control at 1000 g/ha with weeds and/or crops (setting [1]) worked out at 0%; in the assay with weeds and/or crops (setting [2]) it was 40%; in the assay with weeds and/or crops (setting [6]), 0%; in the assay with weeds and/or crops (setting [3]), 50%; in the assay with weeds and/or crops (setting [5]) it was 50%; in the assay on AMARE, 0%. Besides, the pest or weed control at 1000 g/ha in the assay on STEME amounted to 0%; in the assay on IPOHE, 10%; with ABUTH, 0%. In addition, the plant injury at 1000 g/ha in the assay with ZEAMX stood at 10%.
Consider `O=C(O)C(F)(F)c1c(Cl)cccc1[N+](=O)[O-]` [Compound 1-67, 2-(2-Chloro-6-nitrophenyl)-2,2-difluoroacetic acid], for which the pest or weed control at 1000 g/ha came to 10% in the assay on weeds and/or crops (setting [1]); 10% with weeds and/or crops (setting [2]); 10% in the assay on weeds and/or crops (setting [6]); 30% in the assay on weeds and/or crops (setting [3]); 60% in the assay on weeds and/or crops (setting [5]); 0% in the assay with AMARE. For the same compound, the pest or weed control at 1000 g/ha in the assay on STEME was 0%; with IPOHE, 30%; with ABUTH, 0%. The plant injury at 1000 g/ha in the assay on ZEAMX amounted to 10%.
For the compound `Nc1cc(Cl)c(Cl)c(C(F)(F)C(=O)O)c1` [Compound 1-77, 3-[carboxy(difluoro)methyl]-4,5-dichloroanilinium], the pest or weed control at 1000 g/ha came to 30% with weeds and/or crops (setting [1]); 10% with weeds and/or crops (setting [2]); 60% in the assay on weeds and/or crops (setting [3]); 0% in the assay with weeds and/or crops (setting [4]); 10% in the assay on weeds and/or crops (setting [5]); 10% with AMARE. The pest or weed control at 1000 g/ha in the assay on STEME worked out at 10%; in the assay on IPOHE, 30%; in the assay on ABUTH it was 10%. The plant injury at 1000 g/ha with ZEAMX is 0%.
For the compound `O=C(O)C(F)(F)c1cc(-c2ccc(F)cc2)cc(Cl)c1Cl` [Compound 1-78, 2-(4,5-Dichloro-4′-fluoro-[1,1′-biphenyl]-3-yl)-2,2-difluoroacetic acid], the pest or weed control at 1000 g/ha in the assay on weeds and/or crops (setting [1]) is 0%; with weeds and/or crops (setting [2]), 30%; in the assay on weeds and/or crops (setting [6]), 10%; with weeds and/or crops (setting [3]), 50%; in the assay with weeds and/or crops (setting [5]), 40%; in the assay with AMARE, 0%. Also, the pest or weed control at 1000 g/ha in the assay on STEME and in the assay on IPOHE was 0% each time. In addition, the plant injury at 1000 g/ha in the assay on ZEAMX amounted to 0%.
Turning to `COc1c(Cl)cc(Cl)c(Cl)c1C(F)(F)C(=O)O` [Compound 1-82, 2,2-Difluoro-2-(2,3,5-trichloro-6-methoxy-phenyl)acetic acid], the pest or weed control at 1000 g/ha was 10% in the assay on weeds and/or crops (setting [1]); 20% with weeds and/or crops (setting [2]); 20% in the assay on weeds and/or crops (setting [6]); 60% in the assay with weeds and/or crops (setting [3]); 30% in the assay on weeds and/or crops (setting [5]); 60% in the assay with AMARE. Also, the pest or weed control at 1000 g/ha amounted to 30% in the assay with STEME and 20% in the assay on IPOHE. For the same compound, the plant injury at 1000 g/ha with ZEAMX turned out to be 0%.
As for `CCc1cccc(C(F)(F)C(=O)O)c1Cl` [Compound 1-196, 2-(2-Chloro-3-ethyl-phenyl)-2,2-difluoro-acetic acid], the pest or weed control at 1000 g/ha was found to be 90% in the assay on weeds and/or crops (setting [1]); 10% in the assay with weeds and/or crops (setting [2]); 80% with weeds and/or crops (setting [6]); 50% in the assay with weeds and/or crops (setting [3]); 70% with weeds and/or crops (setting [5]); 40% in the assay with AMARE. In addition, the pest or weed control at 1000 g/ha was determined as 80% with STEME, 70% with IPOHE and 70% in the assay on ABUTH. Also, in the assay with ZEAMX, the plant injury at 1000 g/ha was 20%.
In the case of `C=Cc1cccc(C(F)(F)C(=O)O)c1Cl` [Compound 1-207, 2-(2-Chloro-3-vinyl-phenyl)-2,2-difluoro-acetic acid], the pest or weed control at 1000 g/ha in the assay with weeds and/or crops (setting [1]) is 90%; in the assay with weeds and/or crops (setting [2]) it was 30%; in the assay on weeds and/or crops (setting [6]), 80%; in the assay with weeds and/or crops (setting [3]), 70%; in the assay on weeds and/or crops (setting [5]) it was 80%; in the assay on AMARE, 80%. Besides, the pest or weed control at 1000 g/ha with STEME, with IPOHE and in the assay on ABUTH was 90% in each case. The plant injury at 1000 g/ha in the assay with ZEAMX was 30%.
With `C#Cc1cccc(C(F)(F)C(=O)O)c1Cl` [Compound 1-208, 2-(2-Chloro-3-ethynyl-phenyl)-2,2-difluoro-acetic acid], the pest or weed control at 1000 g/ha in the assay with weeds and/or crops (setting [1]) worked out at 90%; in the assay on weeds and/or crops (setting [2]) it was 70%; in the assay on weeds and/or crops (setting [6]), 90%; with weeds and/or crops (setting [3]) it was 90%; with weeds and/or crops (setting [5]), 90%; in the assay with AMARE it was 90%. The values for the pest or weed control at 1000 g/ha in the assay with STEME, in the assay on IPOHE and with ABUTH were 100%, 90% and 100%, respectively. The plant injury at 1000 g/ha in the assay on ZEAMX is 80%.
Consider `O=C(O)C(F)(F)c1cc(Cl)c(Cl)cc1O` [Compound 1-298, 2-(4,5-Dichloro-2-hydroxy-phenyl)-2,2-difluoro-acetic acid], for which the pest or weed control at 1000 g/ha was 0% in the assay on weeds and/or crops (setting [1]); 20% with weeds and/or crops (setting [2]); 10% with weeds and/or crops (setting [6]); 10% in the assay with weeds and/or crops (setting [3]); 10% in the assay with weeds and/or crops (setting [5]); 0% in the assay with AMARE. Also, the pest or weed control at 1000 g/ha in the assay on STEME, in the assay with IPOHE and with ABUTH was 0% each time. Also, the plant injury at 1000 g/ha in the assay with ZEAMX is 0%.
With `Nc1c(Cl)cc(Cl)cc1C(F)(F)C(=O)O` [Compound 7-253, Ammonium 2-(2-amino-3,5-dichloro-phenyl)-2,2-difluoro-acetate], the pest or weed control at 1000 g/ha is 60% with weeds and/or crops (setting [1]); 10% with weeds and/or crops (setting [2]); 40% in the assay on weeds and/or crops (setting [6]); 60% with weeds and/or crops (setting [3]); 0% in the assay on weeds and/or crops (setting [4]); 70% with weeds and/or crops (setting [5]). The pest or weed control at 1000 g/ha in the assay on AMARE, in the assay with IPOHE, in the assay with ECHCG and with ABUTH was 0% throughout.
